Reference: paper doi:10.1101/2023.10.02.560523v1, “Quantitative target engagement of RIPK1 in human whole blood via the cellular thermal shift assay for potential pre-clinical and clinical applications” (biorxiv, 2023)

Biological target: T1, RIPK1 (receptor interacting serine/threonine-protein kinase 1) (Homo sapiens, UniProt Q13546)
T1 construct: endogenous untagged full-length protein in unprocessed human whole blood of healthy donors
T1 sequence (Q13546 1-671): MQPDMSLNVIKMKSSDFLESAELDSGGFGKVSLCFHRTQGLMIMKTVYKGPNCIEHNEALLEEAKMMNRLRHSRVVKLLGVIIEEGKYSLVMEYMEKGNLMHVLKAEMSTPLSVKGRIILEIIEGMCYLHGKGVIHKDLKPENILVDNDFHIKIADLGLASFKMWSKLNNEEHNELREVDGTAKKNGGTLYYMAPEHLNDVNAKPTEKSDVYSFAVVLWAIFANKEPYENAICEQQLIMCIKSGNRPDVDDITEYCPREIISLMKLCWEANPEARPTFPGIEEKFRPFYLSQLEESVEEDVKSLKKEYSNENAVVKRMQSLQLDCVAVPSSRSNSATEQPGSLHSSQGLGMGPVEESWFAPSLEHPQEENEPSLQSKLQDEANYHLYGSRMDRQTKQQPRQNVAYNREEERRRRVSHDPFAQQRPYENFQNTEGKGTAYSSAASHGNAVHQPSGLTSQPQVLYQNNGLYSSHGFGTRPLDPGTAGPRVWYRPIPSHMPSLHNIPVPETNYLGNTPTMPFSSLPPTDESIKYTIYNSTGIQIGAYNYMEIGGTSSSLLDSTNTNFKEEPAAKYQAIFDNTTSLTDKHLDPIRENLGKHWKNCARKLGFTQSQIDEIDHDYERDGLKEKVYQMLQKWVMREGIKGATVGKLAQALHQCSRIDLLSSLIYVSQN
Test: MSD TEAR1 occupancy immunoassay, human whole blood
Format: cell-based
Settings: 1 h at 37 °C with compound, no heating; N=1 donor; unreliable
Text: MSD TEAR1 occupancy immunoassay, human whole blood on RIPK1 (receptor interacting serine/threonine-protein kinase 1)

EC50: 340 nM
Structure (SMILES): COc1ccc(-n2c(SCC#N)nc3sc4c(c3c2=O)CCCC4)cc1 [necrostatin 5]
